Test results reported in ChEMBL document CHEMBL1146415, “3-Epi-aplykurodinone B, a new degraded sterol from Aplysia fasciata” (1997).

Assays:
Format in all cases: functional
Conditions in all cases: read-out: ED50 (the source's name)
P388 = assay: Cytotoxicity against mouse P388 cells
HT-29 = assay: Cytotoxicity against human HT-29 cells
A549 = assay: Cytotoxicity against human A549 cells
SK-MEL-28 = assay: Cytotoxicity against human SK-MEL-28 cells

Measured: EC50

CC(C)=CCC[C@@H](C)[C@H]1C[C@@H]2OC(=O)C[C@@H]3C(=O)CC[C@@]1(C)[C@H]23 [3-EPI-APLYKURODINONE B]
2.5 µg/mL: all assays above
